Test results from publication PMC4265309 (Chemical biology & drug design, 2014).

Legend:
[1] = pH sensitivity of lytic activity; format: biochemical; settings: ratio calculated from the average IC50 values of a peptide at pH=7.4 and pH=5.5
[2] = Peptide circular dichroism; format: physicochemical; settings: secondary structure by CD, 25 °C
CHO-K1 cells [3] = assay: Peptide induced cell lysis; format: cell-based; settings: CHO-K1, normal cell culture conditions, no peptide (Figures 2 and 4)
CHO-K1 cells [4] = assay: Measurement of cell surface pH, CHO-K1; format: cell-based; settings: from pH=8.4 to pH=6.90, medium pH=7.4
[5] = Peptide self-assembly and aggregation in solution; format: physicochemical

Molecule	pH sensitivity [1]	Structure pH=6.5 [2]	Structure pH=7.4 [2]	further results
WLGALFKALSHLL [CL-10]	2.5	Coil	α-helix	
WLGALFHALSKLL [CL-9]	3.0	Coil	α-helix	
FLGALFKALSKLL [PTP-7]				Cytotoxicity to A549 relative to CCD-13Lu (A549 and CCD-13Lu cells): equally active to both cells
FLGALFRALSRLL [CL-1]	1.2	Coil	Coil	
CO/C1=C\C(C)=C\[C@@H](C)[C@@H](O)[C@@H](C)C/C(C)=C/C=C/[C@H](OC)[C@@H]([C@@H](C)[C@@H](O)[C@H](C)[C@@]2(O)C[C@@H](O)[C@H](C)[C@@H](C(C)C)O2)OC1=O [Bafilomycin A1]				Effect on cell viability (CHO-K1 cells [3]): very limited effects on cell viability
Nc1ncnc2c1nc(Sc1ccc(Cl)cc1)n2[C@@H]1O[C@@H]2COP(=O)(O)O[C@H]2[C@H]1O [Peptide 8-CPT-cAMP, 8-CPT-cAMP]				Effect on cell viability (CHO-K1 cells [3]): no effects on the viability; Time to reduction of cell surface pH (CHO-K1 cells [4]): ≤ 30 minutes
FLGALFRALSHLL [CL-7]	2.2	Coil	α-helix	Aggregation at physiological pH ([5]; 40 µM peptide, 1,8-ANS 20 µM, excitation 369 nm, SEM at pH=7.4): underwent self-assembly at physiological pH; Stability of peptide aggregates under acidic conditions ([5]; 1,8-ANS 20 µM, 40 µM peptide, particle analysis at 80 µM): unstable and dissolved under acidic conditions
WLGALFKALSHLLGHHPH [CL-22]	13.8	Coil	α-helix	
